Reference: patent US20130217094A1, “ENZYME SOLUTION FOR SEPARATING CELL, METHOD FOR SEPARATING CELL AND METHOD FOR SEPARATING PANCREATIC ISLET” (BIO LINK, INCORPORATED, priority 2010, published 2013)

Legend:
[1] = system: diabetes model SCID mice; assay: Transplantation of pancreatic islets to diabetes model SCID mice; type: in vivo
Procedure: Note here that in the following Examples, rats at an age of 9 to 10 weeks were used as a donor of the pancreatic islets. Furthermore, as a recipient, SCID mice at an age of 9 to 10 weeks were used. Streptozocin (STZ; 250 mg/kg) was intraperitoneally administered to SCID mice under anesthesia of diethyl ether, and β cells were destroyed to induce diabetes. Mice whose casual blood glucose level exceeds 350 mg/dL for two continuous days were regarded as diabetes mice, and they were used as the recipients. […] For the screening of the diabetes model SCID mice, mice whose casual blood glucose level exceeds 350 mg/dL for two continuous days by collection of blood were employed. In transplantation, the mice were subjected to ether anesthesia, and pancreatic islet was infused into the renicapsule of the left kidney by using a 250 μL pipette tip. After transplantation, the blood was recovered every day for the first seven days, and the blood glucose level was measured, and thereafter, the blood glucose level was measured three times a week. Then, on Day 30 after transplantation, the pancreatic islet-transplanted kidney was extracted. Note here that the definition of cure of diabetes was a case in which the blood glucose level was less than 150 mg/dL for three continuous days and the blood glucose level after nephrectomy was increased to more than 250 mg/dL.

[2] = system: pancreatic islets; assay: Secretion of insulin by glucose stimulation (ELISA); type: cell-based, rats; conditions: 60 minutes, islets 150 to 200 μm, n=10
Procedure: As a medium, RPMI1640 medium containing 3.3 mM glucose and 0.1% fetal bovine serum was used, and conditions were set at 37° C. and in 5% CO2/95% air condition. In measurement, the Transwell medium on which pancreatic islets were placed was subjected to RPMI1640 medium containing 3.3 mM glucose and 0.1% fetal bovine serum, and pre-cultured for 60 minutes. Note here that the culture was carried out at 37° C. and in 5% CO2/95% air conditions. Thereafter, the Transwell medium on which pancreatic islets were placed was moved to a new well containing the similar medium and stood still for 60 minutes (sample A). […] Thereafter, the media of the sample A and the sample B were recovered, and insulin contained in the medium was measured by using an insulin measurement kit (manufactured by Morinaga Biochemical Lab, Inc.) using the ELISA method. Then, the value obtained by dividing the insulin level of the sample B by the insulin level of the sample A was defined as an insulin secretion stimulation index.

[3] = system: pancreatic islets; assay: Evaluation of damages in pancreatic islets (AO/PI staining, viability); type: cell-based, rats; conditions: AO/PI fluorescence area, n=8 in each group; islets separated in Example 1
Source text: The degree of damage of pancreatic islets can be evaluated based on whether or not a barrier function of the cell membrane can be maintained. Then, the pancreatic islets of each group separated in Example 1 (n=8 in each group) was stained with acridine orange (AO) and propidium iodide as fluorescent dye. Note here that AO is taken in cells even in living cells to emit green fluorescence, and PI is taken into cells by failure of the barrier function of the cell membrane and bound to DNA to emit red fluorescence. Specifically, AO (10 μM) and PI (15 μM) were dissolved in PBS to form a solution, the pancreatic islets were incubated in the resultant solution for 10 minutes, and then the pancreatic islets were observed under fluorescence microscope. Then, by using image analysis software (Image J free software), an area of the green fluorescence and an area of the red fluorescence were obtained, the rate (%) of the area of green fluorescence excluding the area of the red fluorescence was defined as the viability (%) of pancreatic islet.

[4] = system: pancreatic islets; assay: Separation of pancreatic islets from rats with the enzyme solution: yield of pancreatic islets; type: cell-based; conditions: per rat, n=8; collagenase (2 mg/mL) Hanks' solution infused via pancreatic duct, 37° C. 32 minutes; DIDS 200 μM or NaCl substituted with sodium glutamate
Procedure: The rats were grouped into three groups (a control group, a DIDS group, a low Cl^− group) each including 8 rats, then abdominal section was carried out to each rat under ether anesthesia, the choledoch duct was clamped in the vicinity of the entrance of the duodenum, and cannula was inserted. Then, 12 mL of Hanks' solution (NaCl: […], KCl: 400 mg/mL, MgSG4: 48.8 mg/mL, MgCl2: 46.8 mg/mL, CaCl2: 140 mg/mL, KH2PO4: 60 mg/mL, Na HPO4: 47.9 mg/mL and glucose: 1000 mg/mL) containing collagenase (2 mg/mL) was infused into the pancreas via the pancreatic duct from the cannula. However, to the DIDS group, DIDS (200 μM) as a chloride ion channel inhibitor was further added, and to the low Cl^− group, sodium chloride in the Hanks' solution was substituted with sodium glutamate.
The pancreas that had been swollen by infusion of the solution was extracted, and incubated at 37° C. for 32 minutes. Thereafter, degraded tissue was placed into 50 mL conical tube, and the Hanks' solution at 4° C. was added so as to stop the enzyme reaction. The tube was gently shaken, and subjected to centrifugation at 320G for 10 to 15 seconds. […]
For the yield of the pancreatic islets, IEQ (islet equivalents; the number of pancreatic islets based on the diameter of 150 μm) as a unit is used. […] Note here that the number of pancreatic islets whose diameter was less than 50 μm was not counted.

## O=S(=O)([O-])c1cc(N=C=S)ccc1C=Cc1ccc(N=C=S)cc1S(=O)(=O)[O-].[Na+].[Na+] [DIDS, 4,4′-di(isothiocyano)stilbene-2,2′-disodium disulfonate]
[1]; 200 IEQ islets transplanted to renicapsule of left kidney, STZ diabetes SCID mice, n=5
  blood glucose level on Day 1 to 2 after the transplantation: 78.7 ± 52.7 mg/dL
[1]; 200 IEQ islets transplanted, n=5 in each group
  mice that came to have a normal blood glucose (<150 mg/dL): all of five mice
[2]; 3.3 mM glucose
  insulin secretion sample A (3.3 mM glucose): 1.94 ± 0.44 μU
[2]; 20 mM glucose
  insulin secretion sample B (20 mM glucose): 19.0 ± 4.46 μU
[3]
  viability of the pancreatic islets: 84.9±4.9%
[4]
  yield of the pancreatic islets: 1969±244 IEQ
